From US20070167408A1, “NOVEL ALKYL PHOSPHOLIPID DERIVATIVES WITH REDUCED CYTOTOXICITY AND USES THEREOF” (ZENTARIS GmbH, priority 2005, published 2007)
≈ marks a conversion by molar mass, not a printed value.

How the values were obtained:
[1] = system: PC3 (human prostate carcinoma) cells; assay: XTT cytotoxicity assay, PC3 cells; type: cell-based; details: Homo sapiens, PC-3; 31.6 μM, second set of experiments; read-out: PC3 % INH [31.6 μM]
Outline: (§1)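 Cells recovered 24 h after plating, then exposed to compounds for 48 h at 37 °C; one set used 10 semi-log concentrations from 100 μM, another 31.6 μM final for PC3 and RKOp21. XTT-PMS added for 3 h, formazan absorbance at 490 nm versus untreated cells; IC50 from inhibition curves.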

[2] = system: Streptococcus pneumoniae DSM 20566 (ATCC 33400); assay: Anti-bacterial bouillon microdilution assay (MIC), bacterium A; type: cell-based; details: Streptococcus pneumoniae DSM 20566, 24 h
Protocol: (§2) Selected compounds of the invention were tested in a bouillon microdilution assay method according to the DIN 58940 (www.din.de) guidelines for determination of susceptibility of bacterial strains with regard to cell growth inhibition. The assay method quantifies bacterial cell growth which corresponds to the turbidity of the liquid culture medium by photometric measurement carried out at 595 nm.
(§3) The method of MIC determination was performed according to DIN 58940-5. The volumina were adapted according to the microdilution method as described in DIN 58940-7 guideline.
(§4) Dependent on water solubility, compounds of the invention were dissolved either in water or ethanol in a concentration of 10 mg/ml. Subsequently, the stock was further diluted in water to a concentration of 512 μg/ml. The following serial dilutions (factor 2) were performed in water resulting in the following […] testing concentrations: 256 μg/ml, 128 μg/ml, 64 μg/ml, 32 μg/ml, 16 μg/ml, 8 μg/ml, 4 μg/ml, 2 μg/ml, 1 μg/ml, 0.5 μg/ml, 0.25 μg/ml and 0.125 μg/ml. Diluted compounds of the invention were transferred in 100 μl volume to the microtiter plate wells.
(§5) Pre-cultures of bacteria were grown in appropriate liquid media (refer to ATCC webpage, www.atcc.org) and afterwards were inoculated in corresponding liquid medium. 100 μl of the inoculums [adjusted to an amount of app. 1×10^6 microorganisms per ml (range of 10^5-10^8 microorganisms per ml)] were added to each of the testing compound concentrations and cultivated under the appropriate conditions.
(§6) Before and after incubation, bacterial growth was determined by photometric analysis against a positive control containing growing bacteria without compound and a sterile/negative control containing only the medium.

[3] = system: SKOV-3 (human ovary adenocarcinoma) cells; assay: XTT cytotoxicity assay, SKOV-3 cells; type: cell-based; details: Homo sapiens, SK-OV-3, second set of experiments, read-out: SKOV-3 % INH [100 μM]
Protocol: On the first day of the experiment cells were harvested from exponential phase cultures by trypsination, counted and plated into 96 well flat-bottom micro titer plates depending on the cell line as listed below: [table] After a 24 h recovery to allow the cells to resume exponential growth, the test compounds were diluted immediately prior to use and transferred in 25 μl volume to the wells. Following 2 days of continuous drug exposure 50 μl of freshly prepared XTT-PMS solution {2% 0.386 mg/ml PMS (N-Methyl Dibenzopyrazine Methylsulphate; Sigma, Cat. No. […] Serva, Cat. No. 38450) in RPMI 1640 medium without phenol red} was added to the wells. To measure the proportion of living cells, the cells were incubated for 3 h with XTT-PMS reagent at 37° C., 5% CO2, humidified atmosphere allowing to form the formazan salt. […] Inhibition curves were generated and IC50 values calculated by using GraphPad Prism.

[4] = system: RKOp21 (human colon adenocarcinoma) cells; assay: XTT cytotoxicity assay, RKOp21 cells; type: cell-based; details: Homo sapiens; 31.6 μM, second set of experiments; read-out: RKOp21 % INH [31.6 μM]
Outline: as §1

[5] = system: Streptococcus pneumoniae DSM 11967 (ATCC 49619); assay: Anti-bacterial bouillon microdilution assay (MIC), bacterium B; type: cell-based; details: Streptococcus pneumoniae DSM 11967, 24 h
Protocol: as §2, §3, §4, §5, §6

[6] = system: PC3, RKOp21 and SKOV-3 cell lines; assay: XTT cytotoxicity assay, mean over all three cell lines; type: cell-based, human; details: mean value over all three cell lines
Protocol: Following 2 days of continuous drug exposure 50 μl of freshly prepared XTT-PMS solution {2% 0.386 mg/ml PMS (N-Methyl Dibenzopyrazine Methylsulphate; Sigma, Cat. No. […] Serva, Cat. No. 38450) in RPMI 1640 medium without phenol red} was added to the wells. To measure the proportion of living cells, the cells were incubated for 3 h with XTT-PMS reagent at 37° C., 5% CO2, humidified atmosphere allowing to form the formazan salt. […] Inhibition curves were generated and IC50 values calculated by using GraphPad Prism. In the following table 7 cytotoxicity results (% inhibition of cell growth) obtained in the second set of experiments for selected compounds of the invention are presented in comparison to examples of the prior art (perifosine, miltefosine). The results presented are individual values for the respective cell line as well as the mean value over all three cell lines tested.

[7] = system: Moraxella catarrhalis DMS 11994 (ATCC 43617); assay: Anti-bacterial bouillon microdilution assay (MIC), bacterium D; type: cell-based; details: ATCC43617, 24 h
Outline: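 Broth microdilution MIC per DIN 58940-5/-7. Twofold compound dilutions in water spanned 256 to 0.125 μg/ml in the test concentration series, with inocula of about 1×10^6 organisms/ml in strain-appropriate media. Growth was read as turbidity at 595 nm before and after incubation, against growth and sterile controls.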

Leishmaniasis = details: clinical phase III trials, parenteral; cited from earlier work
[8] = system: Bacteroides fragilis DSM 2151 (ATCC 25285); assay: Anti-bacterial bouillon microdilution assay (MIC), bacterium E; type: cell-based; details: anaerob, 24 h
Protocol: as §2, §3, §4, §5, §6

[9] = system: Enterococcus faecium DSM 20477 (ATCC 19434); assay: Anti-bacterial bouillon microdilution assay (MIC), bacterium C; type: cell-based; details: Enterococcus faecium DSM 20477, 24 h
Protocol: as §2, §3
as §4, with “wells. […]” for “wells.”
as §6

MIC [2] [µg/mL] | MIC [5] [µg/mL] | MIC [7] [µg/mL] | MIC [8] [µg/mL] | MIC [9] [µg/mL] | SMILES | inhibition at 31.6 µM [1] [%] | inhibition at 100 µM [3] [%] | inhibition at 31.6 µM [4] [%] | Mean % INH [6] [%] | efficient in % of the cases (Leishmaniasis) [%]
8 (≈ 17.3 µM) | 4 (≈ 8.66 µM) | 4 (≈ 8.66 µM) | – | – | CCCCCCCCCCCCCCCCOP(=O)([O-])OCC[N+]1(C)CCCCCC1 [Compound 89, Phosphoric acid hexadecyl ester 2-(1-methyl-azepan-1-yl)-ethyl ester] | 50.6 | 26.1 | 11.3 | 29.3 | –
– | – | – | – | – | NC[C@@H]1O[C@H](O[C@H]2[C@@H](O)[C@H](O[C@@H]3[C@@H](O)[C@H](N)C[C@H](N)[C@H]3O[C@H]3O[C@H](CO)[C@@H](O)[C@H](O)[C@H]3N)O[C@@H]2CO)[C@H](N)[C@@H](O)[C@@H]1O [paromomycin, O-2-amino-2-deoxy-alpha-D-glucopyranosyl-(1-4)-O-[O-2,6-diamino-2,6-dideoxy-beta-L-idopyranosyl-(1-3)-beta-D-ribofuranosyl-(1-5)]-2-deoxy-D-streptamine] | – | – | – | – | 95
8 (≈ 17 µM) | 4 (≈ 8.52 µM) | 4 (≈ 8.52 µM) | 64 (≈ 136 µM) | 8 (≈ 17 µM) | CCCCCCCCCCCCCCCCOP(=O)([O-])OCC[N+](C)(C)c1ccccc1 [Compound 107, Phosphoric acid hexadecyl ester 2-(N-phenyl-N,N-dimethyl-amino)-ethyl ester] | – | – | – | – | –
